Experimental data as given in PubChem BioAssay AID588780 (Sanford-Burnham Center for Chemical Genomics, 2011).
Activity calls are given as the source filed them.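 The calls were made as follows: active = compounds whose fitted half-maximal concentration in the cell-protection dose series is at or below a set limit; inactive = the rest.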

Test system: H9c2 cardiomyocytes, 2-deoxyglucose stress, ATP luminescence, 2 h
Test: H9c2 cell survival under 2-deoxyglucose stress – uHTS hits, dose response (AID 588780)

SMILES	IC50
COc1cc(-c2nnc(-c3ccc(N4CCOCC4)cc3)o2)cc(OC)c1OC	> 79 µM (inactive)
COc1ccccc1-c1cc(NC(C)=O)c2ncc(-c3cccc(C(C)=O)c3)n2c1	13.5 µM
Oc1ccc(Cl)cc1C=Nc1ccc(Br)cc1	> 79 µM (inactive)
COc1ccc(NC(=O)CCCc2nc3ccccc3c(=O)[nH]2)cc1Cl	> 79 µM (inactive)
CCC(c1nnnn1Cc1ccco1)N(Cc1cc2cc(C)cc(C)c2[nH]c1=O)CC1CCCO1 (centres undefined)	> 79 µM (inactive)
c1ccc(-c2cc(-c3nnc4sc(-c5ccccn5)nn34)[nH]n2)cc1	> 79 µM (inactive)
O=C(O)c1nn(CC(=O)N2CCN(c3ccccc3)CC2)c(=O)c2ccccc12	> 79 µM (inactive)
CCn1nc(C(=O)OCC(=O)c2c[nH]c3ccccc23)c2ccccc2c1=O	11.6 µM
CC(=O)c1cccc(-c2cnc3c(NC=O)cc(-c4ccccc4F)cn23)c1	17.9 µM
Cc1sc2nc(COC(=O)Cc3ccccc3)[nH]c(=O)c2c1C	> 79 µM (inactive)
CCCn1c(SC(C(=O)Nc2cccc(OC)c2)c2ccccc2)nc2ccccc2c1=O (centres undefined)	> 79 µM (inactive)
COc1ccc(OCC(=O)NCc2n[nH]c(=O)c3ccccc23)cc1	> 79 µM (inactive)
Cc1cccc(C(C)C)c1NC(=O)C(C)OC(=O)Cc1n[nH]c(=O)c2ccccc12 (centres undefined)	> 79 µM (inactive)
O=C(Cn1[nH]c(=O)c2ccccc2c1=O)NNC(=O)c1ccccc1	9.4 µM
CC(NC(=O)c1cc2c(=O)n(C)c3ccccc3c2n1C)c1ccc2c(c1)OCCO2 (centres undefined)	30.5 µM (inactive)
COc1ccc(N2CC(C(=O)NCc3n[nH]c(=O)c4ccccc34)CC2=O)cc1 (centres undefined)	> 79 µM (inactive)
O=C(CCc1nc2ccccc2c(=O)[nH]1)Nc1nc(-c2cccs2)cs1	> 79 µM (inactive)
CCOC(=O)C1=C(C)N=c2s/c(=C\c3ccncc3)c(=O)n2C1c1ccc2c(c1)OCO2 (centres undefined)	41.1 µM (inactive)
COc1ccc(N(CC(=O)Nc2cccc(C(C)=O)c2)S(=O)(=O)c2ccc(NC(C)=O)cc2)cc1	10.7 µM
O=c1c2ccccc2oc2nc(-c3ccco3)n(Cc3ccccc3)c(=O)c12	> 79 µM (inactive)
COc1cccc(C(=O)Nc2cc(C)c3c(=O)oc4ccccc4c3n2)c1	> 79 µM (inactive)
COc1cc(-c2cc(NC(C)=O)c3ncc(-c4ccc(C(C)=O)cc4)n3c2)cc(OC)c1OC	> 79 µM (inactive)
O=C1c2ccccc2C(=O)N1CCCCSc1nc2ccccc2c(=O)n1CCCN1CCOCC1	58.6 µM (inactive)
CCCN1CCN(C(=O)CCc2nnc3ccc(N4CCN(c5cccc(OC)c5)CC4)nn23)CC1	> 79 µM (inactive)

SMILES	IC50
CN(CC(=O)Nc1cccc(F)c1)C(=O)CCCc1nc2ccccc2c(=O)[nH]1	> 79 µM (inactive)
O=C(OCc1cc(=O)n2ccsc2n1)c1ccc(O)cc1O	> 79 µM (inactive)
O=C(Nc1ccc2c(c1)OCO2)c1cnn2c(C(F)(F)F)cc(-c3ccco3)nc12	7.33 µM
COc1cccc(NC(=O)c2oc3ccc(S(=O)(=O)N4CCOCC4)cc3c2C)c1	> 79 µM (inactive)
CSc1nnc(NC(=O)c2cc3ccccc3oc2=O)s1	> 79 µM (inactive)
Cc1ccc(C)c(C(=O)Nc2cc(C)nn2-c2nc(C)cc(C)n2)c1	> 79 µM (inactive)
Cc1ccccc1N(C(=O)c1snc(C(N)=O)c1N)C(C(=O)NCc1ccccc1)c1ccc(O)cc1 (centres undefined)	17.8 µM
O=C(Nc1nc(-c2ccccn2)cs1)c1cc(S(=O)(=O)N2CCOCC2)ccc1F	> 79 µM (inactive)
COc1ccc(-c2cc3nc(C)cc(N4CCN(C(=O)c5ccoc5)CC4)n3n2)cc1	51.7 µM (inactive)
CCn1c(=O)cc(OCC(=O)Nc2ccccc2C#N)c2ccccc21	> 79 µM (inactive)
CCCCn1c(N)c(Br)c(=O)[nH]c1=O	> 79 µM (inactive)
COc1ccc(CCn2c(=N)c(C(=O)NCC3CCCO3)cc3c(=O)n4cccc(C)c4nc32)cc1OC (centres undefined)	58 µM (inactive)
COc1ccc(-c2cc(C(=O)N3CCN(c4ccccc4)CC3)c3ccccc3n2)cc1OC	> 79 µM (inactive)
COc1ccc(C(C(=O)NC2CCCC2)N(C(=O)c2snc(C(N)=O)c2N)c2cccc(O)c2)cc1 (centres undefined)	> 79 µM (inactive)
C/C(=N\NC(=O)c1ccccc1-n1cccc1)c1ccccn1	> 79 µM (inactive)
Cc1cc(Br)cc(C=Nc2ccc(N3CCOCC3)cc2)c1O	58.4 µM (inactive)
CCOC(=O)c1ccc(-c2ccc(C3Nc4ccccc4C(=O)N3O)o2)cc1 (centres undefined)	20.4 µM
CCC(c1nnnn1Cc1ccccc1)N1CCC(n2c(=O)[nH]c3ccccc32)CC1 (centres undefined)	> 79 µM (inactive)
O=c1[nH]c2cccnc2c2ccsc12	> 79 µM (inactive)
O=C(CCCN1C(=O)c2cccc3cccc(c23)C1=O)N1CCN(c2ccccc2O)CC1	10.3 µM
O=C(Cn1nc(C(=O)O)c2ccccc2c1=O)c1c[nH]c2ccccc12	36.3 µM (inactive)
COC(=O)c1cccc(Nc2nc(-c3cccnc3)nc3ccccc23)c1	> 79 µM (inactive)
COc1ccc(-c2nn3c(-c4ccco4)nnc3s2)cc1OC	33.8 µM (inactive)
CC(C)n1nc(C(=O)OCC(=O)c2c[nH]c3ccccc23)c2ccccc2c1=O	> 79 µM (inactive)

SMILES	IC50
COc1ccc(C(=O)Nc2nc(-c3ccccn3)cs2)cc1S(=O)(=O)N1CCOCC1	16.1 µM
CN(C)CCCNc1ccc(-c2n[nH]c(=O)c3ccccc23)cc1[N+](=O)[O-]	> 79 µM (inactive)
Cc1ccc2c(c1)CCCN2C(=O)CCc1nc2ccccc2c(=O)[nH]1	9.06 µM
O=c1cc(CSc2ccc([N+](=O)[O-])cc2)nc2sccn12	> 79 µM (inactive)
COC(=O)/C(=C(O)\C=C\c1ccccc1[N+](=O)[O-])c1nc2ccccc2[nH]1	> 79 µM (inactive)
O=C(NCC(=O)N(Cc1cccs1)C(C(=O)NC1CCCCC1)c1ccco1)c1cccs1 (centres undefined)	15.3 µM
CCN(CC(=O)Nc1c(F)cccc1F)C(=O)Cc1n[nH]c(=O)c2ccccc12	> 79 µM (inactive)
COC(=O)N1C(=O)[C@](c2ccccc2)(C2CCCCC2)N1C(=O)OC	25.4 µM
O=C(NCC(=O)N(Cc1cccs1)C(C(=O)NC1CCCCC1)c1ccco1)c1ccco1 (centres undefined)	15.5 µM
COc1ccc2o/c(=N/NC(=O)c3cccs3)c(C(N)=O)cc2c1	16.3 µM
CCN1C(=O)/C(=C/c2nc3ccccc3c(=O)[nH]2)c2ccccc21	> 79 µM (inactive)
Oc1c(Br)cc(Br)cc1C=NCc1ccccc1	> 79 µM (inactive)
Cc1ccc(-c2n[nH]c(=O)c3ccccc23)cc1S(=O)(=O)NC(C)(C)C	> 79 µM (inactive)
CCCCN1CC(COCc2ccccc2)Oc2cccc(OCCN3C(=O)[C@@H]4[C@H](C3=O)C3C=C[C@H]4C3)c2S1(=O)=O (some centres undefined)	> 79 µM (inactive)
O=C(NN=Cc1ccc(N2CCOCC2)s1)c1ccc([N+](=O)[O-])cc1	> 79 µM (inactive)
COCCn1nnnc1C(C(C)C)N(Cc1cccnc1)Cc1cc2cc(OC)ccc2[nH]c1=O (centres undefined)	> 79 µM (inactive)
COc1ccc(NS(=O)(=O)c2ccc3ccccc3c2)c2ncccc12	> 79 µM (inactive)
Cc1nn(-c2ccccc2)c(C)c1/C=N/NC(=O)c1cc(C(C)(C)C)[nH]n1	32.1 µM (inactive)
CC(C)(C)OC(=O)CNC(=O)c1[nH]cnc1C(=O)NC(c1ccccc1)c1ccccc1	19.2 µM
COc1ccc2[nH]c(=O)c(CN(CCc3ccccc3)Cc3nnnn3CC3CCCO3)cc2c1 (centres undefined)	> 79 µM (inactive)
CCOC(=O)C1CCCN(C(=O)CCC(=O)Nc2ccc3nc(N4CCOCC4)cc(C)c3c2)C1 (centres undefined)	11 µM
O=C1NC(c2cccs2)Nc2ccccc21 (centres undefined)	> 79 µM (inactive)
COCc1c(C(=O)Nc2ccc3nc(N4CCOCC4)sc3c2)oc2ccccc12	> 79 µM (inactive)
O=C(Nc1nnc(-c2ccco2)o1)c1ccc2ccccc2c1	> 79 µM (inactive)

SMILES	IC50
CCN(CC)S(=O)(=O)c1ccc(Nc2nc3ccccc3n3nnnc23)cc1	> 79 µM (inactive)
COc1cc(C)cc2oc(=O)c(CC(=O)N3CCN(C(=O)C4COc5ccccc5O4)CC3)c(C)c12 (centres undefined)	34.9 µM (inactive)
COC(=O)c1ccc(Cn2c(C)c(C(=O)NCc3cccs3)sc2=O)o1	> 79 µM (inactive)
COc1cc(-c2cc(C(=O)Nc3cccc(C(C)=O)c3)c3ccccc3n2)cc(OC)c1OC	> 79 µM (inactive)
N#Cc1cnn2cc(-c3ncc(C(F)(F)F)cc3Cl)cnc12	27.6 µM
CCOc1ccc(C(C(=O)NC2CCCC2)N(C(=O)c2snc(C(N)=O)c2N)c2cccc(O)c2)cc1 (centres undefined)	> 79 µM (inactive)
COc1ccccc1-c1cc2nc(-c3ccccc3)cc(N3CCN(C(=O)c4ccco4)CC3)n2n1	> 79 µM (inactive)
CSCCC(NS(=O)(=O)c1ccccc1)C(=O)OCc1cc(=O)oc2cc(O)ccc12 (centres undefined)	> 79 µM (inactive)
CCN1C(=O)/C(=C/c2nc3ccccc3c(=O)n2-c2ccccc2)c2ccccc21	> 79 µM (inactive)
O=C(CCC(=O)N1CCN(C2CCCCC2)CC1)Nc1nnc(C(F)(F)F)s1	> 79 µM (inactive)
CC(OC(=O)Cc1n[nH]c(=O)c2ccccc12)C(=O)Nc1ccc(F)cc1 (centres undefined)	> 79 µM (inactive)
COC(=O)c1ccc(C(NC(=O)OCc2ccccc2)/C(C)=C/[C@@H](C)C(=O)NCc2ccc(OC)c(OC)c2)cc1 (some centres undefined)	22.8 µM
Cc1nc(SCC(=O)N2CCN(c3ccccc3)CC2)c2oc3ccccc3c2n1	13.8 µM
CCN1CCN(c2nc3c(c(=O)[nH]2)CCCC3)CC1	> 79 µM (inactive)
CCCN1Cc2cccc(C(N)=O)c2C1=O	> 79 µM (inactive)
CC1(c2ccccc2)NC(=O)N(CC(=O)Nc2cccc(/C=C/c3ccccn3)c2)C1=O (centres undefined)	19 µM
COc1cc(-c2cc(C(=O)NCc3ccco3)c3ccccc3n2)cc(OC)c1OC	16.6 µM
Cc1ccc(-n2cc(-c3ccccc3)c3c(N4CCOCC4)ncnc32)cc1	> 79 µM (inactive)
O=C(COC(=O)c1ccc([N+](=O)[O-])o1)Nc1cccc(S(=O)(=O)N2CCCCC2)c1	> 79 µM (inactive)
O=C(Nc1nnc(-c2ccc3c(c2)CCCC3)o1)c1ccccc1	23.3 µM
COc1cccc(C(=O)Nc2cccc(-c3nnc(-c4ccco4)o3)c2)c1	> 79 µM (inactive)
O=C(/C=C/NNC(=O)c1ccccc1)c1ccc(Br)cc1	> 79 µM (inactive)
